One experiment has as its system exon 45. As to conditions: RMS cells, 24 hr incubation; for Exon Skipping Efficacy (%) with 5 μM AC: 5 μM AC with Endo-Porter; for Exon Skipping Efficacy (%) with 10 μM AC: 10 μM AC with Endo-Porter. Here is the method: Cell Culture and Treatment: This study eruploys human rhabdomyosarcorna cells (RMS cells, ATCC CRL-2061. RMS cells were cultured in T75 flasks in RP 11640 (ATCC) medium with addition of 10% FBS (VWR) and Ix Penicillin-Streptormycin (VWR) under conditions of 37° C. and 5% CO2. 1×10^5 RMS cells were seeded per well in RPMII 640 full medium in 24-well plates for overnight. The next day the culture medium was replaced with 1 mL. fresh medium 5 μM or 10 μM of an AC from Table 8 was added to the cell culture and swirled to mix. Subsequently, 6 μL of Endo-Porter (Gene-tools) was added to the cell culture per well (1 mL of culture medium) and immediately swirled to mix. […] The cells were allowed to stand at room temperature for 5 minutes for cell lysis and pipetted a few times for a thorough mix. The lysates were collected in the Sample Tube RB (QIAGEN).
RNA Extraction: The RNA was extracted using QIAcube following the protocol from the manufacture. The concentration of the total RNA was determined using a NanoDrop 8000 (Thermo Fisher Scientific).
Nested PCR: Nested PCR was performed with 200 ng of the extracted total RNA and QIAGEN OneStep RT-PCR Kits for the primary amplification. A reaction solution of 50 μL was prepared following manufacture's protocol with DMD specific primers
The RT-PCR program used is as follows:
The secondary amplification PCR reaction was prepared using OneTaq® Hot Start 2X Master Mix following manufacture's protocol
Gel Electrophoresis Analysis for Exon Skipping Efficiency: 4 μL of the PCR product above was analyzed by 2% E-gel (Invitrogen′™) and imaged with E-Gel™ Power Snap Electrophoresis System (Thermo Fisher Scientific). The intensities of the skipped and full-length bands were analyzed. The polynucleotide level “A” of the band with exon 45 skipping and the polynucleotide level “B” of the band without exon 45 skipping were measured using ImageJ. 181 Based on these measurement values of “A” and “B”, the skipping efficiency was determined by the following equation: Skipping efficiency (%)=A/(A+B)'100.

Experiment [1] relates to D2/MDX mice. As to conditions: Q2W IV; 4, 8 and 12 weeks post-treatment. Here is the method:
Serum CK was determined at 4 time points: pre-dose, and at 4, 8 and 12 weeks.

In experiment [2] the test system is D2/MDX mice. Particulars: Q2W IV; at 12 weeks vs pre-dose. Here is the method: Grip strength was measured at pre-dose (FIG. 11A) and at 12 weeks (FIG. 11B).
The test system of experiment [3] is D2/MDX mice. Particulars: PMO only, Q2W IV; 2 to 12 weeks.

From patent publication US20240417429A1, “COMPOSITIONS AND METHODS FOR SKIPPING EXON 45 IN DUCHENNE MUSCULAR DYSTROPHY” (Entrada Therapeutics, Inc., priority 2021, published 2024) come the findings set out here.

For the substance “5′-ATGCCATCCTGGAGTTCCTGT-3′ [D45-21mer-n4]”, in the experiment with exon 45, the “Exon Skipping Efficacy (%) with 5 μM AC” value amounted to 42.6% and the “Exon Skipping Efficacy (%) with 10 μM AC” value worked out at 52.0%.
As to “5′-CCGCTGCCCAATGCCATCCTG-3′ [D45-21mer-6]”, in the experiment on exon 45, the “Exon Skipping Efficacy (%) with 5 μM AC” value is 45.9% and the “Exon Skipping Efficacy (%) with 10 μM AC” value was 59.5%.
The like results for “5′-CCCAATGCCATCCTGGAGTTCCTGT-3′ [D45-25mer-n4]” were, in that order, 37.6% and 42.6%.
The corresponding values for “5′-CAATGCCATCCTGGAGTTCCTGT-3′ [D45-23mer-n4]” are 35.3% and 45.3%.
On to “5′-CCCAATGCCATCCTGGAGTTCCTG-3′ [D45-24mer-n3]”, for which, in the experiment on exon 45, the “Exon Skipping Efficacy (%) with 5 μM AC” value is listed as 44.2% and the “Exon Skipping Efficacy (%) with 10 μM AC” value is 52.3%.
With “5′-CCCAATGCCATCCTGGAGTTCCT-3′ [D45-23mer-n2]”, in the experiment with exon 45, the “Exon Skipping Efficacy (%) with 5 μM AC” value stood at 46.4% and the “Exon Skipping Efficacy (%) with 10 μM AC” value amounted to 58.2%.
Turning to “5′-CCGCTGCCCAATGCCATCCTGGAG-3′ [D45-24mer-3]”, in the experiment on exon 45, the “Exon Skipping Efficacy (%) with 5 μM AC” value came out at 37.2% and the “Exon Skipping Efficacy (%) with 10 μM AC” value was 40.8%.
As to “5′-TGCCCAATGCCATCCTGGAGTTCCT-3′ [D45-25mer-n2]”, in the experiment with exon 45, the “Exon Skipping Efficacy (%) with 5 μM AC” value was 44.0% and the “Exon Skipping Efficacy (%) with 10 μM AC” value was determined as 48.8%.
With “5′-GGCCAAACCTCGGCTTACCTGAAAT-3′ [PMO-MDX23]”, in the experiment on D2/MDX mice [1], the “Serum CK” value was “no significant decrease”. Besides, the Grip strength entry in the experiment on D2/MDX mice [2] is reported as “no significant improvement”. The “Wire hang time, PMO treatment alone” value in the experiment on D2/MDX mice [3] is “following the same trends as the vehicle D2.mdx group”.
Take “5′-CCCAATGCCATCCTGGAGTTCC-3′ [D45-22mer-n1]”: in the experiment on exon 45, the “Exon Skipping Efficacy (%) with 5 μM AC” value is 45.1% and the “Exon Skipping Efficacy (%) with 10 μM AC” value is 62.3%.
On to “5′-GCCCAATGCCATCCTGGAGTTCC-3′ [D45-23mer-n1]”, for which, in the experiment on exon 45, the “Exon Skipping Efficacy (%) with 5 μM AC” value was 39.6% and the “Exon Skipping Efficacy (%) with 10 μM AC” value came out at 54.4%.
On to “5′-ATGCCATCCTGGAGTTCCTGTA-3′ [D45-22mer-n5]”, for which, in the experiment on exon 45, the “Exon Skipping Efficacy (%) with 5 μM AC” value was found to be 36.8% and the “Exon Skipping Efficacy (%) with 10 μM AC” value is listed as 50.9%.
The like results for “5′-AATGCCATCCTGGAGTTCCTG-3′ [D45-21mer-n3]” were, in that order, 41.8% and 52.7%.
